Source: PMC8800111 (The Journal of Biological Chemistry, 2021)

Tests used:
Type in all cases: cell-based
[1] = molecular target: proteins of U3A human fibrosarcoma cells (4462 proteins detected) (Homo sapiens, UniProt Q27J81); settings: protein INF2, U3A cells
[2] = molecular target: proteins of U3A human fibrosarcoma cells (4462 proteins detected) (Homo sapiens, UniProt Q06546); settings: protein GABPA; U3A cells
[3] = molecular target: proteins of U3A human fibrosarcoma cells (4462 proteins detected) (Homo sapiens, UniProt Q9NT62); settings: protein ATG3; soluble abundance after heat, U3A cells
[4] = molecular target: proteins of U3A human fibrosarcoma cells (4462 proteins detected) (Homo sapiens, UniProt Q93008); settings: protein USP9X; soluble abundance after heat, U3A cells
Sequence of proteins of U3A human fibrosarcoma cells (4462 proteins detected) (Homo sapiens, UniProt Q93008) (Q93008 whole entry): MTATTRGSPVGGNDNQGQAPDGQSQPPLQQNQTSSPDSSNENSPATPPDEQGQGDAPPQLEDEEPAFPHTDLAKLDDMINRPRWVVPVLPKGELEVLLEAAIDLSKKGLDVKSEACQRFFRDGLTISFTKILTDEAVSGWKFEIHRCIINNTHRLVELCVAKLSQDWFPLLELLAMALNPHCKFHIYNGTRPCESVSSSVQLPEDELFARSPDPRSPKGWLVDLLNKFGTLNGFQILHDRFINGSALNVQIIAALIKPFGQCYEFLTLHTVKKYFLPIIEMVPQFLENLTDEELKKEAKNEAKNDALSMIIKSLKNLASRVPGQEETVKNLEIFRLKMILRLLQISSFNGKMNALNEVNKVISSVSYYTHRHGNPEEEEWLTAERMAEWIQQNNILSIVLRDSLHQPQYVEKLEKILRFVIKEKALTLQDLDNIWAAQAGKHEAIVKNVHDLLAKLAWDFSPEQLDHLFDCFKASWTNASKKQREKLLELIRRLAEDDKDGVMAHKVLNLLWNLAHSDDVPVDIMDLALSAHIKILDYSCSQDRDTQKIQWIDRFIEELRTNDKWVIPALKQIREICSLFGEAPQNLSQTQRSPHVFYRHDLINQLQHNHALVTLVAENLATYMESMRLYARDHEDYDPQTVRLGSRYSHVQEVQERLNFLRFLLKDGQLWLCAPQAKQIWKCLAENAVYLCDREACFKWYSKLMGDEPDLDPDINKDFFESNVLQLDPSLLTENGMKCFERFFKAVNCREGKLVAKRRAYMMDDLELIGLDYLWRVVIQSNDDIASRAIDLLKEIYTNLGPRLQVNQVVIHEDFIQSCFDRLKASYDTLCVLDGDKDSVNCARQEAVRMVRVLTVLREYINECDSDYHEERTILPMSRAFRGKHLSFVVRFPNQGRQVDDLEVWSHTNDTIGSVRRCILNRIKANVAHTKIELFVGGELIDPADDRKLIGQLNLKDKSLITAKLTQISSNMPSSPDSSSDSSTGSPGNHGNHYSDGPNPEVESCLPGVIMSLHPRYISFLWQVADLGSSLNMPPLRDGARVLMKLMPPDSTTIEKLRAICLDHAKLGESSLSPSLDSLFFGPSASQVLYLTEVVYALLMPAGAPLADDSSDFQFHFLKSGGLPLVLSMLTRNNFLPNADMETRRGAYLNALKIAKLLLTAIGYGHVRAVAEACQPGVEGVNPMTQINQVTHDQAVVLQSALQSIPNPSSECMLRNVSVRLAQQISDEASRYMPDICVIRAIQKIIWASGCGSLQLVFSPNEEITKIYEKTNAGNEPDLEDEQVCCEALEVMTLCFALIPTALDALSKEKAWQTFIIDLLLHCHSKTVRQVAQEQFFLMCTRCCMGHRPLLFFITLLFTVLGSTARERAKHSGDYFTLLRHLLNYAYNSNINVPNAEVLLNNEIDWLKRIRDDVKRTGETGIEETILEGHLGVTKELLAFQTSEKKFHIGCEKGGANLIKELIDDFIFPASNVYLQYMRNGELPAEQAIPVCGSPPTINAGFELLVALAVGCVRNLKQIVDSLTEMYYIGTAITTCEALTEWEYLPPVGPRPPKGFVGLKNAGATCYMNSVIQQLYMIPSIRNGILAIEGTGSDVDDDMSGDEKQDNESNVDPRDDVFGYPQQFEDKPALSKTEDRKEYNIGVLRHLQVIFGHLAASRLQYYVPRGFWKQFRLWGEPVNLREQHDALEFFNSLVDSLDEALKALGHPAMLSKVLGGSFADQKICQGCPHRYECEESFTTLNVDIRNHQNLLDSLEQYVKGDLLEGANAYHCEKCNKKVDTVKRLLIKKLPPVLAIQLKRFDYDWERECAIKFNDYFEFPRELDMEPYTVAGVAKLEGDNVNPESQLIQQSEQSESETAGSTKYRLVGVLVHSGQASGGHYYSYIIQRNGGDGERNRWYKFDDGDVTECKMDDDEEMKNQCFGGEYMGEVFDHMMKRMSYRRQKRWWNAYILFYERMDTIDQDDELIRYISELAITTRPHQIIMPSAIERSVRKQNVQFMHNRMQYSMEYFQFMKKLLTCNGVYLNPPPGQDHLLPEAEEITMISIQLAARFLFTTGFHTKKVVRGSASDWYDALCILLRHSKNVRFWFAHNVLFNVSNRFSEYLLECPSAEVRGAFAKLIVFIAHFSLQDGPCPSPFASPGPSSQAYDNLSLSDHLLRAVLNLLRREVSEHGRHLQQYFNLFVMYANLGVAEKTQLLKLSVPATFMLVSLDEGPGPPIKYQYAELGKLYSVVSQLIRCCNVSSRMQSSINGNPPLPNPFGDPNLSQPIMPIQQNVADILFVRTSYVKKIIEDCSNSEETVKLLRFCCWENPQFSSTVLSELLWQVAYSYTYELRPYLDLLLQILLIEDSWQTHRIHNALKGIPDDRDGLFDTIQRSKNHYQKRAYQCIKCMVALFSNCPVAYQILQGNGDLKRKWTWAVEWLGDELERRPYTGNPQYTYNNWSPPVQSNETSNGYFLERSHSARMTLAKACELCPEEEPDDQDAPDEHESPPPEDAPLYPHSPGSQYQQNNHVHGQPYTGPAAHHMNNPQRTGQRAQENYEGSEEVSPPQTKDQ

[5] = molecular target: proteins of U3A human fibrosarcoma cells (4462 proteins detected) (Homo sapiens, UniProt Q12979); settings: protein ABR; U3A cells
[6] = molecular target: proteins of U3A human fibrosarcoma cells (4462 proteins detected) (Homo sapiens, UniProt Q08623); settings: protein HDHD1, U3A cells
Sequence of proteins of U3A human fibrosarcoma cells (4462 proteins detected) (Homo sapiens, UniProt Q08623) (Q08623 whole entry): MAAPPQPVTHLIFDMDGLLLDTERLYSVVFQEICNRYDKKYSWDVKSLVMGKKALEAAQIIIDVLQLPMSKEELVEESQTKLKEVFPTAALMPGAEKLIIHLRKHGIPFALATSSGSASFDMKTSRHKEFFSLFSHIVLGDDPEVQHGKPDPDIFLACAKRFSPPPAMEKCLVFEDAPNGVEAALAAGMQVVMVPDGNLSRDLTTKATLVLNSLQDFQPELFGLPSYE

[7] = molecular target: proteins of U3A human fibrosarcoma cells (4462 proteins detected) (Homo sapiens, UniProt P54709); settings: protein ATP1B3; U3A, 10 μM, 2 h
[8] = molecular target: proteins of U3A human fibrosarcoma cells (4462 proteins detected) (Homo sapiens, UniProt Q9UJ41); settings: protein RABGEF1; U3A cells
[9] = molecular target: proteins of U3A human fibrosarcoma cells (4462 proteins detected) (Homo sapiens, UniProt Q6ZQQ6); settings: protein WDR87; U3A, 10 μM, 2 h
[10] = molecular target: proteins of U3A human fibrosarcoma cells (4462 proteins detected) (Homo sapiens, UniProt P61313); settings: protein RPL15; U3A cells
[11] = molecular target: proteins of U3A human fibrosarcoma cells (4462 proteins detected) (Homo sapiens, UniProt O60684); settings: protein KPNA6; U3A cells
[12] = molecular target: proteins of U3A human fibrosarcoma cells (4462 proteins detected) (Homo sapiens, UniProt P13473); settings: protein LAMP2; soluble abundance after heat, U3A cells
[13] = molecular target: proteins of U3A human fibrosarcoma cells (4462 proteins detected) (Homo sapiens, UniProt O94915); settings: protein FRYL; U3A, 10 μM, 2 h
[14] = molecular target: proteins of U3A human fibrosarcoma cells (4462 proteins detected) (Homo sapiens, UniProt P04818); settings: PISA
[15] = molecular target: proteins of U3A human fibrosarcoma cells (4462 proteins detected) (Homo sapiens, UniProt Q99848); settings: protein EBNA1BP2; U3A cells
[16] = molecular target: proteins of U3A human fibrosarcoma cells (4462 proteins detected) (Homo sapiens, UniProt P01040); settings: protein CSTA, U3A cells
[17] = molecular target: proteins of U3A human fibrosarcoma cells (4462 proteins detected) (Homo sapiens, UniProt Q9HD33); settings: protein MRPL47; U3A cells
[18] = molecular target: proteins of U3A human fibrosarcoma cells (4462 proteins detected) (Homo sapiens, UniProt Q9Y4X5); settings: protein ARIH1; U3A cells
[19] = molecular target: proteins of U3A human fibrosarcoma cells (4462 proteins detected) (Homo sapiens, UniProt Q8TDP1); settings: protein RNASEH2C, U3A cells
[20] = molecular target: proteins of U3A human fibrosarcoma cells (4462 proteins detected) (Homo sapiens, UniProt P42766); settings: protein RPL35; U3A cells
[21] = molecular target: proteins of U3A human fibrosarcoma cells (4462 proteins detected) (Homo sapiens, UniProt Q9NWV8); settings: protein BABAM1; soluble abundance after heat, U3A cells
[22] = molecular target: proteins of U3A human fibrosarcoma cells (4462 proteins detected) (Homo sapiens, UniProt Q9NYV4); settings: protein CDK12; U3A cells
[23] = molecular target: proteins of U3A human fibrosarcoma cells (4462 proteins detected) (Homo sapiens, UniProt P00519); settings: protein ABL1; U3A cells
[24] = molecular target: proteins of U3A human fibrosarcoma cells (4462 proteins detected) (Homo sapiens, UniProt Q09161); settings: protein NCBP1; soluble abundance after heat, U3A cells
[25] = molecular target: proteins of U3A human fibrosarcoma cells (4462 proteins detected) (Homo sapiens, UniProt O60291); settings: protein MGRN1; U3A, 10 μM, 2 h
Sequence of proteins of U3A human fibrosarcoma cells (4462 proteins detected) (Homo sapiens, UniProt O60291) (O60291 whole entry): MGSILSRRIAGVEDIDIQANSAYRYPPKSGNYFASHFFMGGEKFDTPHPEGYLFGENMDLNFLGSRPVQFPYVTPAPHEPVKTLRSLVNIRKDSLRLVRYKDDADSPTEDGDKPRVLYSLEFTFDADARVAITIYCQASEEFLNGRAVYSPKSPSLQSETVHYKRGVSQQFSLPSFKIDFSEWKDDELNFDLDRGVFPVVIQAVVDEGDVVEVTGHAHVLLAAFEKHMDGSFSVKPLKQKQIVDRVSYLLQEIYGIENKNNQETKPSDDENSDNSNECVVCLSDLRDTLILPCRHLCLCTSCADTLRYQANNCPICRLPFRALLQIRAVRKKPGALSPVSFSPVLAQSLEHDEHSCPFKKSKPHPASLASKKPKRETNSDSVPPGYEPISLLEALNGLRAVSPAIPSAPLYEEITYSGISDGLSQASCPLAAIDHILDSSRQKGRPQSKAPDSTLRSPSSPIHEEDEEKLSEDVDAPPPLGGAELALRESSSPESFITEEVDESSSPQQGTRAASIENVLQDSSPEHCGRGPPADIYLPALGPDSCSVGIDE

[26] = molecular target: proteins of U3A human fibrosarcoma cells (4462 proteins detected) (Homo sapiens, UniProt P06748); settings: protein NPM1; U3A cells
[27] = molecular target: proteins of U3A human fibrosarcoma cells (4462 proteins detected) (Homo sapiens, UniProt Q03252); settings: protein LMNB2; U3A cells
[28] = molecular target: proteins of U3A human fibrosarcoma cells (4462 proteins detected) (Homo sapiens, UniProt Q12905); settings: protein ILF2; U3A cells
Sequence of proteins of U3A human fibrosarcoma cells (4462 proteins detected) (Homo sapiens, UniProt Q12905) (Q12905 whole entry): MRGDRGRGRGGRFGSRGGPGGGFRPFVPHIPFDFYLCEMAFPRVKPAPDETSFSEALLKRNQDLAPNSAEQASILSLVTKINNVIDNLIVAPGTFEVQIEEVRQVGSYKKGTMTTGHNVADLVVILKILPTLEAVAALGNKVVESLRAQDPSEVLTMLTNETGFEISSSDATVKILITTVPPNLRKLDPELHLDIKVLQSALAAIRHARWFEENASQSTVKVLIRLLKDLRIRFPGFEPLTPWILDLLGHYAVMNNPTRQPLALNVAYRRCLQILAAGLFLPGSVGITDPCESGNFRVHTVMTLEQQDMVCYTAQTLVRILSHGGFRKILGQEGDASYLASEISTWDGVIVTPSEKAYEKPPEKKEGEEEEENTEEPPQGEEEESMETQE

[29] = molecular target: proteins of U3A human fibrosarcoma cells (4462 proteins detected) (Homo sapiens, UniProt Q9C0C9); settings: protein UBE2O; soluble abundance after heat, U3A cells
Sequence of proteins of U3A human fibrosarcoma cells (4462 proteins detected) (Homo sapiens, UniProt Q9C0C9) (Q9C0C9 whole entry): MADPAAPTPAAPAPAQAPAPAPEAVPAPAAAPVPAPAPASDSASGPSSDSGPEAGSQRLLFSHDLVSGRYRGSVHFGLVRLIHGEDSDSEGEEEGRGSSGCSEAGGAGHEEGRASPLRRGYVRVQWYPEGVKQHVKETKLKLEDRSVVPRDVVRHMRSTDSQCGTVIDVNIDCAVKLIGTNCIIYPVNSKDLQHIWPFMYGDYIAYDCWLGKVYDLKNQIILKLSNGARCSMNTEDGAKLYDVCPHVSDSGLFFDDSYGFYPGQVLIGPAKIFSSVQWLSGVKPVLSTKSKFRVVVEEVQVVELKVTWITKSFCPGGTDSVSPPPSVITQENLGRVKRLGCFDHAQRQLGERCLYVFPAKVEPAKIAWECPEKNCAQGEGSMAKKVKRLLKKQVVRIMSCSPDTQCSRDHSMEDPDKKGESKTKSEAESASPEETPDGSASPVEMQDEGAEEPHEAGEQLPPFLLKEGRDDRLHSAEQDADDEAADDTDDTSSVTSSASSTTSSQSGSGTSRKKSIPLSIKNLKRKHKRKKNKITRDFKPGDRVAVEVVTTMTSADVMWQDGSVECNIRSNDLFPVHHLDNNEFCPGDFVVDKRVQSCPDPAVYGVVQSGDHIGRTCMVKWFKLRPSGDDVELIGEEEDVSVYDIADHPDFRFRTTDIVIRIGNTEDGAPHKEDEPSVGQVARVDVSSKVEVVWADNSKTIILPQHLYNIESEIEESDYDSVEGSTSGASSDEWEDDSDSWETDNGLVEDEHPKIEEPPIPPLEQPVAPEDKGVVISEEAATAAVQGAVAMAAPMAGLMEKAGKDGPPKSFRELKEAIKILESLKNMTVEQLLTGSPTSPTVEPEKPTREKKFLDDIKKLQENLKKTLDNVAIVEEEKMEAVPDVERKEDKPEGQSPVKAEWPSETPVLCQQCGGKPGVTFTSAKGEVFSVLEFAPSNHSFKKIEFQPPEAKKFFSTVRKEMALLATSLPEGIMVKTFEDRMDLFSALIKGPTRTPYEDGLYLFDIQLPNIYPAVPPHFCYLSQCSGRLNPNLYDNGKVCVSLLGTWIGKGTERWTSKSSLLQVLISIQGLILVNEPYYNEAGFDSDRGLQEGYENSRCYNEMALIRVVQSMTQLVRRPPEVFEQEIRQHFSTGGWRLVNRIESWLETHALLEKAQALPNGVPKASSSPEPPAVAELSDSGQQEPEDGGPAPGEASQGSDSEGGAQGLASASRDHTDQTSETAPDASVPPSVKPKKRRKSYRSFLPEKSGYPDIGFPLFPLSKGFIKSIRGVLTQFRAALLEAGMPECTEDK

[30] = molecular target: proteins of U3A human fibrosarcoma cells (4462 proteins detected) (Homo sapiens, UniProt P41214); settings: protein EIF2D; U3A cells

CCc1nc(N)nc(N)c1-c1ccc(Cl)cc1 [pyrimethamine]
Log2 (PYR/DMSO) [1]: -0.04
Log2 (PYR/DMSO) [2]: 0.19
Log2 (PYR/DMSO) [3]: 0.13
Log2 (PYR/DMSO) [4]: 0.14
Log2 (PYR/DMSO) [5]: 0.18
Log2 (PYR/DMSO) [6]: -0.04
Log2 (PYR/DMSO), ATP1B3 [7]: 0.27
Log2 (PYR/DMSO) [8]: 0.20
Log2 (PYR/DMSO), WDR87 [9]: -0.16
Log2 (PYR/DMSO) [10]: 0.20
Log2 (PYR/DMSO) [11]: 0.24
Log2 (PYR/DMSO) [12]: 0.14
Log2 (PYR/DMSO), FRYL [13]: 0.28
engagement of TS (thymidylate synthase) [14]: no engagement
Log2 (PYR/DMSO) [15]: 0.21
Log2 (PYR/DMSO) [16]: -0.04
Log2 (PYR/DMSO) [17]: 0.17
Log2 (PYR/DMSO) [18]: 0.16
Log2 (PYR/DMSO) [19]: -0.03
Log2 (PYR/DMSO) [20]: 0.20
Log2 (PYR/DMSO) [21]: 0.15
Log2 (PYR/DMSO) [22]: 0.20
Log2 (PYR/DMSO) [23]: 0.17
Log2 (PYR/DMSO) [24]: 0.14
Log2 (PYR/DMSO), MGRN1 [25]: -0.25
Log2 (PYR/DMSO) [26]: 0.17
Log2 (PYR/DMSO) [27]: 0.19
Log2 (PYR/DMSO) [28]: 0.18
Log2 (PYR/DMSO) [29]: 0.14
Log2 (PYR/DMSO) [30]: 0.22
